According to PubChem BioAssay AID248 (DTP/NCI, 2004):
Values joined by “and” are separate entries in the source; they are usually repeats but may differ in a detail not shown here. Equal values may be shown once. Toxic doses and inconclusive results are not listed. Cut-off read from the data, not from the text of the source: active = T/C of 150% or more; inactive = T/C below 125%.

Tested on: L1210 leukemia ip in BDF1 mice, survival T/C
Assay: NCI In Vivo Anticancer Drug Screen. Data for tumor model L1210 Leukemia (intraperitoneal) in B6D2F1 (BDF1) mice
Details: endpoint: mean survival time, higher = longer survival
Summary of the method: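 In this screen, tumor-bearing mice given compound are compared to those given vehicle, and their survival values are reported as a treated-to-control quotient.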

[1] = dose: 100.0 mg/kg/injection, schedule: Q04DX003 (ip), vehicle: Klucel (hydroxypropylcellulose) (HPC)
[2] = dose: 200.0 mg/kg/injection, schedule: Q04DX003 (ip), vehicle: Klucel (hydroxypropylcellulose) (HPC)
[3] = dose: 400.0 mg/kg/injection, schedule: Q04DX003 (ip), vehicle: Klucel (hydroxypropylcellulose) (HPC)
[4] = dose: 50.0 mg/kg/injection, schedule: Q01DX009 (ip), vehicle: Klucel (hydroxypropylcellulose) (HPC)
[5] = dose: 100.0 mg/kg/injection, schedule: Q01DX009 (ip), vehicle: Klucel (hydroxypropylcellulose) (HPC)
[6] = dose: 200.0 mg/kg/injection, schedule: Q01DX009 (ip), vehicle: Klucel (hydroxypropylcellulose) (HPC)
[7] = dose: 400.0 mg/kg/injection, schedule: Q01DX009 (ip), vehicle: Klucel (hydroxypropylcellulose) (HPC)
[8] = dose: 50.0 mg/kg/injection, schedule: Q01DX001 (ip), vehicle: carboxymethylcellulose (CMC)
[9] = dose: 100.0 mg/kg/injection, schedule: Q01DX001 (ip), vehicle: carboxymethylcellulose (CMC)
[10] = dose: 200.0 mg/kg/injection, schedule: Q01DX001 (ip), vehicle: carboxymethylcellulose (CMC)
[11] = dose: 400.0 mg/kg/injection, schedule: Q01DX001 (ip), vehicle: carboxymethylcellulose (CMC)
[12] = dose: 100.0 mg/kg/injection, schedule: Q01DX001 (ip), vehicle: saline with Tween-80
[13] = dose: 200.0 mg/kg/injection, schedule: Q01DX001 (ip), vehicle: saline with Tween-80
[14] = dose: 400.0 mg/kg/injection, schedule: Q01DX001 (ip), vehicle: saline with Tween-80
[15] = dose: 100.0 mg/kg/injection, schedule: Q01DX009 (ip), vehicle: saline
[16] = dose: 200.0 mg/kg/injection, schedule: Q01DX009 (ip), vehicle: saline
[17] = dose: 100.0 mg/kg/injection, schedule: Q01DX001 (ip), vehicle: saline
[18] = dose: 200.0 mg/kg/injection, schedule: Q01DX001 (ip), vehicle: saline
[19] = dose: 100.0 mg/kg/injection, schedule: Q04DX003 (ip), vehicle: saline with Tween-80
[20] = dose: 200.0 mg/kg/injection, schedule: Q04DX003 (ip), vehicle: saline with Tween-80
[21] = dose: 100.0 mg/kg/injection, schedule: Q04DX002 (ip), vehicle: saline with Tween-80
[22] = dose: 200.0 mg/kg/injection, schedule: Q04DX002 (ip), vehicle: saline with Tween-80
[23] = dose: 400.0 mg/kg/injection, schedule: Q04DX002 (ip), vehicle: saline with Tween-80
[24] = dose: 100.0 mg/kg/injection, schedule: Q04DX003 (ip), vehicle: saline
[25] = dose: 200.0 mg/kg/injection, schedule: Q04DX003 (ip), vehicle: saline
[26] = dose: 400.0 mg/kg/injection, schedule: Q04DX003 (ip), vehicle: saline

Measured: T/C

Cc1ccc2c(c1)Sc1ccc3ccccc3c1N2
inactive: dose: 100.0 mg/kg/injection, schedule: Q01DX009 (ip), vehicle: saline sonified 104 % of control | [1] 97 % of control | dose: 200.0 mg/kg/injection, schedule: Q01DX009 (ip), vehicle: saline sonified 88 % of control | [2] 89 % of control | dose: 400.0 mg/kg/injection, schedule: Q01DX009 (ip), vehicle: saline sonified 100 % of control | [3] 92 % of control

O=C(CCNNC(=O)c1ccncc1)NCc1ccccc1
inactive: dose: 25.0 mg/kg/injection, schedule: Q01DX009 (ip), vehicle: Klucel (hydroxypropylcellulose) (HPC) 101 % of control | dose: 25.0 mg/kg/injection, schedule: Q04DX003 (ip), vehicle: Klucel (hydroxypropylcellulose) (HPC) 101 % of control | [4] 110 % of control | dose: 50.0 mg/kg/injection, schedule: Q04DX003 (ip), vehicle: Klucel (hydroxypropylcellulose) (HPC) 114 % of control | [5] 97 % of control | [1] 95 % of control | [6] 101 % of control | [2] 86 % of control | [7] 101 % of control | [3] 95 % of control

CCOP(=O)(Nc1cccc(Cl)c1)OCC
inactive: [8] 94 % of control | [9] 94 % of control | [10] 105 % of control | [11] 103 % of control

O=C(O)c1ccc(Cn2ccc(=O)[nH]c2=O)cc1
inactive: [12] 95 % of control | [13] 107 % of control | [14] 101 % of control

CCOC(=O)/C(C)=C\c1c(Br)cc(Br)c(N)c1Br
inactive: dose: 75.0 mg/kg/injection, schedule: Q01DX009 (ip), vehicle: Klucel (hydroxypropylcellulose) (HPC) 97 % of control | dose: 150.0 mg/kg/injection, schedule: Q01DX009 (ip), vehicle: Klucel (hydroxypropylcellulose) (HPC) 97 % of control | dose: 300.0 mg/kg/injection, schedule: Q01DX009 (ip), vehicle: Klucel (hydroxypropylcellulose) (HPC) 95 % of control

C1OC1C[N+]12CN3CN(CN(C3)C1)C2 (stereo not drawn)
inactive: dose: 100.0 mg/kg/injection, schedule: Q01DX005 (ip), vehicle: saline 92 % of control | [15] 109 % of control | dose: 200.0 mg/kg/injection, schedule: Q01DX005 (ip), vehicle: saline 113 % of control | [16] 106 % of control | dose: 400.0 mg/kg/injection, schedule: Q01DX005 (ip), vehicle: saline 103 % of control

O=[N+]([O-])c1ccc(O)c(Br)c1
inactive: dose: 6.25 mg/kg/injection, schedule: Q01DX009 (ip), vehicle: saline with Tween-80 95 % of control | dose: 12.5 mg/kg/injection, schedule: Q01DX009 (ip), vehicle: saline with Tween-80 101 % of control | dose: 25.0 mg/kg/injection, schedule: Q01DX009 (ip), vehicle: carboxymethylcellulose (CMC) 90 % of control | dose: 25.0 mg/kg/injection, schedule: Q01DX009 (ip), vehicle: saline with Tween-80 93 % of control

CC1SCC(NC(=O)NCCCl)CS1 (stereo not drawn)
inactive: dose: 100.0 mg/kg/injection, schedule: Q04DX002 (ip), vehicle: gum acacia 103 % of control | dose: 200.0 mg/kg/injection, schedule: Q04DX002 (ip), vehicle: gum acacia 100 % of control | dose: 400.0 mg/kg/injection, schedule: Q04DX002 (ip), vehicle: gum acacia 100 % of control

CCCCCCCCCCCCC[As](=O)(O)CCCCCCCCCCCCC
inactive: dose: 50.0 mg/kg/injection, schedule: Q01DX001 (ip), vehicle: saline 95 % of control | [17] 103 % of control | [18] 101 % of control | dose: 400.0 mg/kg/injection, schedule: Q01DX001 (ip), vehicle: saline 91 % of control

CSc1ccc(NC(=O)Oc2cc(C)ccc2C(C)C)cc1
inactive: [4] 94 % of control | [5] 100 % of control and 88 % of control | [6] 89 % of control | [7] 91 % of control

COc1ccccc1C(C(C)C)C(C)C
inactive: [19] 105 % of control | [20] 101 % of control

CCOc1ccc(NC(=S)NC(=O)c2cccc([N+](=O)[O-])c2)cc1
inactive: [12] 93 % of control | dose: 100.0 mg/kg/injection, schedule: Q01DX009 (ip), vehicle: saline with Tween-80 92 % of control and 95 % of control | [21] 93 % of control and 95 % of control | [19] 98 % of control | [13] 101 % of control | dose: 200.0 mg/kg/injection, schedule: Q01DX009 (ip), vehicle: saline with Tween-80 92 % of control and 98 % of control | [22] 97 % of control and 107 % of control | [20] 96 % of control | [14] 102 % of control | dose: 400.0 mg/kg/injection, schedule: Q01DX009 (ip), vehicle: saline with Tween-80 97 % of control and 106 % of control | [23] 104 % of control and 107 % of control | dose: 400.0 mg/kg/injection, schedule: Q04DX003 (ip), vehicle: saline with Tween-80 91 % of control

COC(=O)C(C)=C1CCCCC1
inactive: [15] 106 % of control | [24] 93 % of control | [16] 96 % of control | [25] 98 % of control | dose: 400.0 mg/kg/injection, schedule: Q01DX009 (ip), vehicle: saline 96 % of control | [26] 95 % of control

Cc1ccc2nn(-c3ccc(O)cc3)nc2c1
inactive: [9] 98 % of control | [10] 93 % of control | [11] 96 % of control

CC1COCC(C)N1C1=C(Cl)C(=O)c2ccccc2C1=O (stereo not drawn)
inactive: dose: 12.5 mg/kg/injection, schedule: Q01DX001 (ip), vehicle: carboxymethylcellulose (CMC) 98 % of control | dose: 25.0 mg/kg/injection, schedule: Q01DX001 (ip), vehicle: carboxymethylcellulose (CMC) 98 % of control

C1CCC(C2CCC(C3CCCCC3)CC2)CC1 (stereo not drawn)
inactive: [17] 90 % of control | [18] 90 % of control

O=[N+]([O-])c1ccc(N=Cc2ccc(Cl)cc2Cl)c(O)c1
inactive: [21] 86 % of control | [22] 120 % of control | [23] 99 % of control

O=C(Nc1ccc(Br)cc1)Nc1ccccc1F
inactive: [5] 98 % of control | [6] 93 % of control | [7] 98 % of control

CCOP(=O)(OCC)Oc1ccccc1
inactive: [24] 91 % of control | [25] 92 % of control | [26] 94 % of control

NC(=S)N/N=C/c1cc(Br)cc(Br)c1O
inactive: dose: 100.0 mg/kg/injection, schedule: Q04DX002 (ip), vehicle: Klucel (hydroxypropylcellulose) (HPC) 95 % of control | dose: 200.0 mg/kg/injection, schedule: Q04DX002 (ip), vehicle: Klucel (hydroxypropylcellulose) (HPC) 91 % of control | dose: 400.0 mg/kg/injection, schedule: Q04DX002 (ip), vehicle: Klucel (hydroxypropylcellulose) (HPC) 100 % of control

O=C(c1ccc(Cl)cc1)c1nonc1C(=O)c1ccc(Cl)cc1
inactive: dose: 100.0 mg/kg/injection, schedule: Q01DX001 (ip), vehicle: Klucel (hydroxypropylcellulose) (HPC) 100 % of control | [5] 98 % of control | dose: 200.0 mg/kg/injection, schedule: Q01DX001 (ip), vehicle: Klucel (hydroxypropylcellulose) (HPC) 96 % of control | [6] 95 % of control | dose: 400.0 mg/kg/injection, schedule: Q01DX001 (ip), vehicle: Klucel (hydroxypropylcellulose) (HPC) 100 % of control | [7] 106 % of control

N#CC(Nc1c(N)nc(-c2ccccc2)nc1N)c1ccc(N(CCCl)CCCl)cc1 (stereo not drawn)
inactive: [8] 100 % of control | [9] 115 % of control | [10] 100 % of control | [11] 105 % of control

CC(C)=CCN1CCN=C(c2ccccc2)c2cc(Cl)ccc21
inactive: [4] 100 % of control | [5] 105 % of control | [1] 102 % of control | [6] 94 % of control | [2] 98 % of control | [3] 93 % of control

CC(C)CNCc1ccc([N+](=O)[O-])cc1
inactive: dose: 75.0 mg/kg/injection, schedule: Q01DX001 (ip), vehicle: carboxymethylcellulose (CMC) 97 % of control | dose: 150.0 mg/kg/injection, schedule: Q01DX001 (ip), vehicle: carboxymethylcellulose (CMC) 95 % of control
